Several values for one entry are separate records, joined by “and”; a condition that tells them apart may be missing. Equal values may be shown once. Marks after values point to notes of the source that are not given here.
What was measured:
[1] = biological target: T1, Rat recombinant α2,3(O)ST (Rattus norvegicus, UniProt Q11205); assay: Sialyltransferase assay with cloned α2,3(O)ST; type: biochemical; settings: for Sialyltransferase activity (%) Cloned α2,3(O)ST: Table I, [14C] sialylated product quantitated on Biogel P2 column; for acceptor efficiency for cloned α2,3(O)ST: 0.75 mM, compared to 3-O-MeGalβ1,4GlcNAcβ1,6(Galβ1,3)GalNAcα-O-Bn
T1 construct: purchased Calbiochem
T1 sequence (Q11205 1-350): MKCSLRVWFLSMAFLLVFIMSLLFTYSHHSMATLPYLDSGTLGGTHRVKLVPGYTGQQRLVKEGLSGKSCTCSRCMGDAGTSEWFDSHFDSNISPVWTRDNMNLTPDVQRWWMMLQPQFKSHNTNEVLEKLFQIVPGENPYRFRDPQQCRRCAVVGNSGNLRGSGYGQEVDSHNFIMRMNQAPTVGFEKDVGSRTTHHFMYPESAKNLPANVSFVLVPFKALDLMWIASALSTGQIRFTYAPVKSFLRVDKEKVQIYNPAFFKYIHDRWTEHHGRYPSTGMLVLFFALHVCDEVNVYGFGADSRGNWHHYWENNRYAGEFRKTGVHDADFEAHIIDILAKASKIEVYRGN

[2] = biological target: T1, Rat recombinant α2,3(O)ST; assay: Sialyltransferase assay with cloned α2,3(O)ST; type: biochemical; settings: for Km / Vmax: CMP-NeuAc 150 μM, Lineweaver-Burke plot
LNCaP α2,3(O)ST = assay: Sialyltransferase assay with LNCaP cell extract; type: biochemical, human
How it was run: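 LNCaP Triton X-100 extract (5 mg protein/ml; 0.1M Tris-maleate pH6.3) incubated with acceptor (typically 7.5 mM) and CMP-[9-3H]NeuAc (typically 0.2 μCi) in 0.1M Na cacodylate pH6.0, 2 h at 37 °C, in duplicate. Radioactive product separated on Dowex-1-formate, Sep-Pak C18 or Biogel P2 and counted by scintillation; blank without acceptor subtracted.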

[3] = biological target: T2, Rat recombinant α2,6(N)ST (Rattus norvegicus, UniProt P13721); assay: Sialyltransferase assay with cloned α2,6(N)ST; type: biochemical
T2 construct: purchased Calbiochem
T2 sequence (P13721 1-403): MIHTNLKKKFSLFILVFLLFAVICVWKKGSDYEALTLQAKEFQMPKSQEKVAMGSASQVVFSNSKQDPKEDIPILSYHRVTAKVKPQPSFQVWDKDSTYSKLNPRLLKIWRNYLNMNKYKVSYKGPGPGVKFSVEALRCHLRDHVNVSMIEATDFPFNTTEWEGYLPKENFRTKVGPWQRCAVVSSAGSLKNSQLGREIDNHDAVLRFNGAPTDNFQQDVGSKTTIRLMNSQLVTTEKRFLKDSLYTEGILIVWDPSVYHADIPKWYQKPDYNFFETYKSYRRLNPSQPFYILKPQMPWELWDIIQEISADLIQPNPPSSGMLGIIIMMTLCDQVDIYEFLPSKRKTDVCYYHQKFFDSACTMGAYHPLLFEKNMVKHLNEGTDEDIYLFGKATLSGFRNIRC
Description: (§1) Rat recombinant α2,3(O)ST, α2,3(N)ST and α2,6(N)ST were purchased from Calbiochem and stored at either −20° C. or −70° C. as recommended by the supplier. […] 10 μl aliquots of the diluted enzymes were used in the assays run in duplicate.
(§2) The incubation mixtures run in duplicate contained 0.1M NaCacodylate buffer pH6.0, the acceptor (typically at 7.5 mM, or as indicated in some experiments), CMP-[9 ^3H] NeuAc (typically 0.2 μci; 20 μci/nmol or as indicated in some experiments) and the enzyme in a total volume of 20 μl. The control incubation mixtures contained everything except the acceptor. Incubation was carried out for 2 h at 37° C. The enzymatic transfer of [9-^3H] NeuAc to a typical acceptor was linear for 2 h and less than 30% CMP-[9-^3H] NeuAc was utilized. Chromatography, using either Dowex-1-Formate, Sep-Pak C18 or Biogel P2, was applied to separate radioactive product from un-reacted [9-^3H] NeuAc as described below.
(§3) The radioactive products from neutral allyl and methyl glycosides as well as non-glycosides were measured by fractionation on Dowex-1-Formate (Bio-Rad: AG-1X8; 200-400 mesh; format form) as follows: The incubation mixture was diluted with 1.0 ml water and passed through AG-1-formate column (1.0 ml bed volume in a Pasteur pipet which had been washed with 5 ml of 2M Formic acid followed by 10 ml water). The column was washed twice with 1.0 ml water after the entry of the sample and then eluted with 3.0 ml of 0.1M NaCl. The radioactivity present in water and 0.1M NaCl eluates were measured separately using 3a70 scintillation cocktail (Research Products International, Mount Prospect, Ill.) and a Beckman LS6500 scintillation counter. The CPM values were corrected by subtracting the blank CPM. Any radioactivity present in the water eluate (as noticed in the case of some methylglycosides) was added to the corresponding CPM value of 0.1M NaCl eluate. The radioactive products from sulfated and/or sialylated methylglycosides were also measured by the above procedure, only the elution of the AG-1-Formate column was continued further with 3.0 ml of 0.2M NaCl for achieving a complete elution of the radioactive product, a correction being made as before by subtracting the corresponding blank values.
(§4) The radioactive products from benzylglycosides and monosialylated benzylglycosides were measured by hydrophobic chromatography on Sep-Pak C18 cartridge (Waters, Milford, Mass.) and eluting the product with 3.0 ml methanol (30). The radioactivity was determined by liquid scintillation as above.
(§5) For such work, a Biogel P2 column (Fine Mesh; 1.0×116.0 cm) was used with 0.1M pyridine acetate pH5.4 as the eluent at room temperature. The effluent fractions were monitored for radioactivity and the first peak containing radioactivity was collected, lyophilized to dryness, dissolved in 200 μl of water and stored frozen at −20° C. for thin layer chromatography (TLC) and other experimentation.

[4] = biological target: T3, Rat recombinant α2,3(N)ST (Rattus norvegicus, UniProt Q02734); assay: Sialyltransferase assay with cloned α2,3(N)ST; type: biochemical
T3 construct: purchased Calbiochem
T3 sequence (Q02734 29-374 limits assumed): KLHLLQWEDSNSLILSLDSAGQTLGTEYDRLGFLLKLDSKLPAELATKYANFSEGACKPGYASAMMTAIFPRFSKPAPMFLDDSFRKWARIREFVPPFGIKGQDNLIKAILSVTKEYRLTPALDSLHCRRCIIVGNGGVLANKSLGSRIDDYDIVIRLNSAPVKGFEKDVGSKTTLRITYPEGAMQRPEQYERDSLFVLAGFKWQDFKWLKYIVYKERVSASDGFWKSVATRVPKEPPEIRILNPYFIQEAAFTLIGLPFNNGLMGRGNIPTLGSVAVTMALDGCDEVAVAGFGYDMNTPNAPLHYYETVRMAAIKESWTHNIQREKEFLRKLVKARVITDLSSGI
Description: as §1, §2, §3, §4, §5

[5] = Table I, acceptor 7.5 mM, 100% = 30930 CPM (3-O-MeGalβ1,4GlcNAcβ1,6(Galβ1,3)GalNAcα-O-Bn)
[6] = Table I, acceptor 7.5 mM, 100% = 40560 CPM (3-O-MeGalβ1,4GlcNAcβ1,6(Galβ1,3)GalNAcα-O-Bn)
[7] = Table II, acceptor 0.75 mM, relative to Galβ1,3GalNAcα-O-Bn
[8] = Table II, acceptor 7.5 mM, relative to Galβ1,3GalNAcα-O-Bn

## CC(=O)N[C@H]1[C@H](OC[C@H]2O[C@H](OCc3ccccc3)[C@H](NC(C)=O)[C@@H](O[C@@H]3O[C@H](CO)[C@H](O)[C@H](O)[C@H]3O)[C@H]2O)O[C@H](CO)[C@@H](O[C@@H]2O[C@H](CO)[C@H](O)[C@H](OS(=O)(=O)O)[C@H]2O)[C@@H]1O [3-O-SulfoGalβ1,4GlcNAcβ1,6(Galβ1,3)GalNAcα-O-Bn]
[1]; acceptor 7.5 mM
  Sialyltransferase activity (%) Cloned α2,3(O)ST: 70.3^e,6%
[1]; acceptor 7.5 mM, listed as 3-O-sulfoGalβ1,4GlcNAcβ1,6(Galβ1,3)GalNAcα-O-Bn
  Sialyltransferase activity (%) Cloned α2,3(O)ST: 70.3%

## CC(=O)N[C@H]1[C@H](OC[C@H]2O[C@H](OCc3ccccc3)[C@H](NC(C)=O)[C@@H](O[C@@H]3O[C@H](CO)[C@H](O)[C@H](O)[C@H]3O)[C@H]2O)O[C@H](COS(=O)(=O)O)[C@@H](O)[C@@H]1O [6-O-SulfoGlcNAcβ1,6(Galβ1,3)GalNAcα-O-Bn]
[1]; acceptor 7.5 mM
  Sialyltransferase activity (%) Cloned α2,3(O)ST: 49.4% and 49.4^e,5%

## CC(=O)N[C@H]1[C@H](OC[C@H]2O[C@H](OCc3ccccc3)[C@H](NC(C)=O)[C@@H](O[C@@H]3O[C@H](C)[C@H](O)[C@H](O)[C@H]3O)[C@H]2O)O[C@H](CO)[C@@H](O)[C@@H]1O [D-Fucβ1,3(GlcNAcβ1.6)GalNAcα-O-Bn]
[1]
  acceptor efficiency for cloned α2,3(O)ST: 100%
[2]
  Km: 280 µM
  Vmax: 1562 pmol/h

## CC(=O)N[C@H]1[C@@H](OCc2ccccc2)O[C@H](CO)[C@H](O)[C@@H]1O[C@@H]1O[C@H](C)[C@H](O)[C@H](O)[C@H]1O [D-Fucβ1,3GalNAcα-O-Bn]
[1]
  acceptor efficiency for cloned α2,3(O)ST: 100%
[2]
  Km: 210 µM
  Vmax: 1250 pmol/h

## C=CCO[C@H]1O[C@H](CO[C@@H]2O[C@H](CO)[C@@H](O)[C@H](O)[C@H]2NC(C)=O)[C@H](O)[C@H](O[C@@H]2O[C@H](CO)[C@H](O)[C@H](O)[C@H]2O)[C@H]1NC(C)=O [Galβ1,3(GlcNAcβ1,6)GalNAcα-O—Al]
LNCaP α2,3(O)ST; [5]
  Sialyltransferase activity (%) LNCaP α2,3(O)ST: 60.4%
[1]; Table IV, compound 7.5 mM
  Radioactivity incorporated (100% value) Cloned α2,3(O)ST: 29860 CPM
[2]; [6]
  Sialyltransferase activity (%) Cloned α2,3(O)ST: 120.5^1%
[2]; Table IV, compound 7.5 mM, relative to Galβ1,3(GlcNAcβ1,6)GalNAcα-O—Al
  Sialyltransferase activity (%) Cloned α2,3(O)ST: 100.0%

## CC(=O)N[C@H]1[C@@H](OCc2ccccc2)O[C@H](CO)[C@H](O)[C@@H]1O[C@@H]1O[C@H](CO)[C@H](O)[C@H](O)[C@H]1O [Galβ1,3GalNAcα-O-Bn]
LNCaP α2,3(O)ST; Table II, acceptor 0.75 mM
  Radioactivity incorporated (100% value) LNCaP α2,3(O)ST: (30490 CPM)
LNCaP α2,3(O)ST; [7]
  Sialyltransferase activity (%) LNCaP α2,3(O)ST: 100.0%
LNCaP α2,3(O)ST; Table II, acceptor 7.5 mM
  Radioactivity incorporated (100% value) LNCaP α2,3(O)ST: (30600 CPM)
LNCaP α2,3(O)ST; [8]
  Sialyltransferase activity (%) LNCaP α2,3(O)ST: 100.0%
[1]; Table II, acceptor 0.75 mM
  Radioactivity incorporated (100% value) Cloned α2,3(O)ST: (42550 CPM)
[1]; Table II, acceptor 7.5 mM
  Radioactivity incorporated (100% value) Cloned α2,3(O)ST: (43600 CPM)
[2]; [7]
  Sialyltransferase activity (%) Cloned α2,3(O)ST: 100.0^8%
[2]; [8]
  Sialyltransferase activity (%) Cloned α2,3(O)ST: 100.0^8%

## CC(=O)NC1C(OCC2OC(OCc3ccccc3)C(NC(C)=O)C(OC3OC(CO)C(O)C(O)C3O)C2O)OC(COS(=O)(=O)O)C(OC2OC(CO)C(O)C(O)C2O)C1O (stereo not shown) [Galβ1,4(6-O-Sulfo)GlcNAcβ1,6(Galβ1,3)GalNAcα-O-Bn]
[1]; acceptor 7.5 mM
  Sialyltransferase activity (%) Cloned α2,3(O)ST: 69.4% and 69.4^e %

## CO[C@@H]1[C@H](O)[C@@H](O)[C@H](O[C@H]2[C@@H](O)[C@@H](CO[C@@H]3O[C@H](CO)[C@@H](O[C@@H]4O[C@H](CO)[C@H](O)[C@H](O)[C@H]4O)[C@H](O)[C@H]3NC(C)=O)O[C@H](OCc3ccccc3)[C@@H]2NC(C)=O)O[C@@H]1CO [Galβ1,4GlcNAcβ1,6(4-O-MeGalβ1,3)GalNAcα-O-Bn]
LNCaP α2,3(O)ST; LNCaPα2,3(O)ST
  acceptor concentration at which maximum activity is reached (FIG. 3D): 0.15 mM
LNCaP α2,3(O)ST; Table III, compound 7.5 mM, 100% = 30100 CPM (3-O-MeGalβ1,4GlcNAcβ1,6(Galβ1,3)GalNAcα-O-Bn)
  LNCaPα2,3(O)ST %: 112.0%
[3]; Table III, compound 7.5 mM, 100% = 30440 CPM (Galβ1,4GlcNAcβ1,6(3-O-MeGalβ1,3)GalNAcα-O-Bn)
  Cloned Sialyltransferase Activities α2,6(N)ST %: 101.3%
[4]; Table III, compound 7.5 mM, 100% = 38140 CPM (Galβ1,4GlcNAcβ1,6(3-O-MeGalβ1,3)GalNAcα-O-Bn)
  Cloned Sialyltransferase Activities α2,3(N) ST %: 100.6%
[2]; Table III, compound 7.5 mM, 100% = 39200 CPM (3-O-MeGalβ1,4GlcNAcβ1,6(Galβ1,3)GalNAcα-O-Bn)
  Cloned Sialyltransferase Activities α2,3(O) ST %: 101.3%

## C=CCO[C@@H]1O[C@H](CO)[C@@H](O[C@@H]2O[C@H](CO)[C@H](O)[C@H](O)[C@H]2O)[C@H](O)[C@H]1NC(C)=O [Galβ1,4GlcNAcβ-O—Al]
LNCaP α2,3(O)ST; [5]
  Sialyltransferase activity (%) LNCaP α2,3(O)ST: 0.5%
[3]; Table I, acceptor 7.5 mM, 100% = 43500 CPM (Galβ1,4GlcNAcβ-O—Al)
  Sialyltransferase activity (%) Cloned α2,6(N)ST: 100.0% and 100.0^b %
[4]; Table I, acceptor 7.5 mM, 100% = 29520 CPM (Galβ1,4GlcNAcβ-O—Al)
  Sialyltransferase activity (%) Cloned α2,3(N)ST: 100.0^a %
[2]; [6]
  Sialyltransferase activity (%) Cloned α2,3(O)ST: 4.7%
